Molecular target: LRRK2 (Homo sapiens, UniProt Q5S007)
Assay: LRRK2 affinity (Ki)
Type: binding
Settings: LRRK2 affinity (micromolar), Table 1

LRRK2, sequence (Q5S007 whole entry): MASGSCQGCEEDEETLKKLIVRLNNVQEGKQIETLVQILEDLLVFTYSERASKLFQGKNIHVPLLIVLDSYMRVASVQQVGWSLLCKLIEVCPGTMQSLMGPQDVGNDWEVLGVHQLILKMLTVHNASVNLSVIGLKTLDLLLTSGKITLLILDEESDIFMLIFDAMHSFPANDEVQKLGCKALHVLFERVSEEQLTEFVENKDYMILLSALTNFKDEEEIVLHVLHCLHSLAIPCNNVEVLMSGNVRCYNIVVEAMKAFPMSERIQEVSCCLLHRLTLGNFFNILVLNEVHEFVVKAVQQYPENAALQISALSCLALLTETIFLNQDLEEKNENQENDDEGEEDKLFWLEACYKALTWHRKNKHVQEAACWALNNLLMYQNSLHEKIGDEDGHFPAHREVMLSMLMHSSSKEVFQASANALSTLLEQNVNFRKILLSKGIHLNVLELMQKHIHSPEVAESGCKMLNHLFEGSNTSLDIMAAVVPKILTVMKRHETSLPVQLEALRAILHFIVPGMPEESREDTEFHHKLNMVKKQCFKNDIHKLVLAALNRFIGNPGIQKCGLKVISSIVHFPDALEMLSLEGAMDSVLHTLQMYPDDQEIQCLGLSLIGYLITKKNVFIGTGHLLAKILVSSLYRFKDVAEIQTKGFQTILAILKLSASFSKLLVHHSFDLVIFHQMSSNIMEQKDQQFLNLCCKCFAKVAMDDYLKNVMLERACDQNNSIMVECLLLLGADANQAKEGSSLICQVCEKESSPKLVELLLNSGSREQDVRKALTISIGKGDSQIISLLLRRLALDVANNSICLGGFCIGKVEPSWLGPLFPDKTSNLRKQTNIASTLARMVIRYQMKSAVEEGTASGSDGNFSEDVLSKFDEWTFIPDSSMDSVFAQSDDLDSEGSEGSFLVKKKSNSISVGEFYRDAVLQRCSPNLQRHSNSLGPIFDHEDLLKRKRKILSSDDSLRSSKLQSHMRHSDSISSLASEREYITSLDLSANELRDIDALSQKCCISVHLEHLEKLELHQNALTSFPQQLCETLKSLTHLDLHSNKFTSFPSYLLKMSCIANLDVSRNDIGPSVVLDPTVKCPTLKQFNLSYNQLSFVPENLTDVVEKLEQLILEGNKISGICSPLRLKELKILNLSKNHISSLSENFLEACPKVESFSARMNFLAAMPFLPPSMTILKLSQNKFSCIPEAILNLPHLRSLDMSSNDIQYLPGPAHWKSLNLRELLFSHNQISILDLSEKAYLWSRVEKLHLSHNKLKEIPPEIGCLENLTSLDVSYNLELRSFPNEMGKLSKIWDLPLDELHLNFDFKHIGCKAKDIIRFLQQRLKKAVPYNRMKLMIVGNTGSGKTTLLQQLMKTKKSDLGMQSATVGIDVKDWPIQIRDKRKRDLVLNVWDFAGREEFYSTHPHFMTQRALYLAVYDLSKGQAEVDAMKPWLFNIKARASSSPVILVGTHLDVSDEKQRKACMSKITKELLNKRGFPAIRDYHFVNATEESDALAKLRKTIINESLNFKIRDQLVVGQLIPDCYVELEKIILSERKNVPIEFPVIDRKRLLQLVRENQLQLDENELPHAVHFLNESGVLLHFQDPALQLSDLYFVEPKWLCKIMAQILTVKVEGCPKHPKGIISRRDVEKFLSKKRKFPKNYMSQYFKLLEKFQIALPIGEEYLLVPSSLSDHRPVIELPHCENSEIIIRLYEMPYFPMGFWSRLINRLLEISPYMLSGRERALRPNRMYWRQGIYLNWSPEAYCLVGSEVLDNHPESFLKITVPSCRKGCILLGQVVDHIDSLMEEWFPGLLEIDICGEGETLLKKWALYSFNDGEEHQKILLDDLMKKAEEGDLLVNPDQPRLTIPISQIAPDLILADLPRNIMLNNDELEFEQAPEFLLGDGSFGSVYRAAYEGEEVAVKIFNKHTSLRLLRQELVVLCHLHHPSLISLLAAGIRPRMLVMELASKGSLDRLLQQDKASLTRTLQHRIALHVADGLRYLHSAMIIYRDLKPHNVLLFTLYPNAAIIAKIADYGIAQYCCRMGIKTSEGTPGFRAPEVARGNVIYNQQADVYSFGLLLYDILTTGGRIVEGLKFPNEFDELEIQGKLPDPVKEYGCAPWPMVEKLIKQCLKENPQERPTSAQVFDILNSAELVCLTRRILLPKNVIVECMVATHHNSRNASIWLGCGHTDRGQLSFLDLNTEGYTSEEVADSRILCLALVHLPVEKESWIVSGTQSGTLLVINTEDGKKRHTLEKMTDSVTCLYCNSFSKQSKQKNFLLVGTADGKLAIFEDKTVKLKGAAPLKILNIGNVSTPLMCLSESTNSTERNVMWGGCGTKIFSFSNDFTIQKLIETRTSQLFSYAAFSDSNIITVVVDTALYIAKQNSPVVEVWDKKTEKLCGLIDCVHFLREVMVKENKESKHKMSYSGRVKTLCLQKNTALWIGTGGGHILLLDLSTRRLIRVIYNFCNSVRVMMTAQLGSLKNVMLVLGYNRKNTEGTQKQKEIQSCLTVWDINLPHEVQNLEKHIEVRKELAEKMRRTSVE

## O=C(c1cc(OCCF)c(Nc2ncc(C(F)(F)F)c(NC3CC3)n2)cc1F)N1CCOCC1 [Compound 1, (4-(4-(cyclopropylamino)-5-(trifluoromethyl)pyrimidin-2-ylamino)-2-fluoro-5-(2-fluoroethoxy)phenyl)(morpholino) methanone]
  Ki: 0.6 nM

## CNc1nc(Nc2cc(C)c(C(=O)N3CCOCC3)cc2OCF)ncc1C(F)(F)F [Compound 2, (5-(fluoromethoxy)-2-methyl-4-(4-(methylamino)-5-(trifluoromethyl)pyrimidin-2-ylamino)phenyl)(morpholino) methanone]
  Ki: 1 nM

## CCNc1nc(Nc2cc(OCF)c(C(=O)N3CCCC3)cc2Cl)ncc1C(F)(F)F [Compound 5, (5-chloro-4-(4-(ethylamino)-5-(trifluoromethyl)pyrimidin-2-ylamino)-2-(fluoromethoxy)phenyl)(pyrrolidin-1-yl)methanone]
  Ki: 1.5 nM

## CCNc1nc(Nc2cc(OC)c(C(=O)N3CCC(F)(F)C3)cc2OCF)ncc1C(F)(F)F [Compound 6, (3,3-difluoropyrrolidin-1-yl)(4-(4-(ethylamino)-5-(trifluoromethyl)pyrimidin-2-ylamino)-5-(fluoromethoxy)-2-methoxyphenyl)methanone]
  Ki: 0.4 nM

## CNc1nc(Nc2cc(C)c(C(=O)N3CCCC3)cc2OCF)ncc1C(F)(F)F [Compound 7, (5-(fluoromethoxy)-2-methyl-4-(4-(methylamino)-5-(trifluoromethyl)pyrimidin-2-ylamino)phenyl)(pyrrolidin-1-yl)methanone]
  Ki: 0.7 nM

## CCNc1nc(Nc2cc(OC)c(C(=O)N3CCC(F)(F)C3)cc2OC)ncc1C(F)(F)F [Compound 8, (3,3-difluoropyrrolidin-1-yl)(4-(4-(ethylamino)-5-(trifluoromethyl)pyrimidin-2-ylamino)-2,5-dimethoxyphenyl)methanone]
  Ki: 1.1 nM

## CNc1nc(Nc2cc(OC)c(C(=O)N3CCC(F)(F)C3)cc2OCCF)ncc1C(F)(F)F [Compound 9, (3,3-difluoropyrrolidin-1-yl)(5-(2-fluoroethoxy)-2-methoxy-4-((4-(methylamino)-5-(trifluoromethyl)pyrimidin-2-yl)amino)phenyl)methanone]
  Ki: 1.5 nM

## CCNc1nc(Nc2cc(F)c(CN3CCOCC3)cc2OCCF)ncc1C(F)(F)F [Compound 10, N4-ethyl-N2-(5-fluoro-2-(2-fluoroethoxy)-4-(morpholinomethyl)phenyl)-5-(trifluoromethyl)pyrimidine-2,4-diamine]
  Ki: 1.5 nM

## CNc1nc(Nc2cc(OC)c(C(=O)N3CCCCC3)cc2OCF)ncc1C(F)(F)F [Compound 11, (5-(fluoromethoxy)-2-methoxy-4-(4-(methylamino)-5-(trifluoromethyl)pyrimidin-2-ylamino)phenyl)(piperidin-1-yl)methanone]
  Ki: 1.6 nM

## CCNc1nc(Nc2cc(F)c(C(=O)N3CCOCC3)cc2OCCF)ncc1C(F)(F)F [Compound 12, (4-(4-(ethylamino)-5-(trifluoromethyl)pyrimidin-2-ylamino)-2-fluoro-5-(2-fluoroethoxy)phenyl)(morpholino) methanone]
  Ki: 2 nM

## CNc1nc(Nc2cc(C)c(C(=O)N3CCOCC3)cc2OCCF)ncc1C(F)(F)F [Compound 13, (5-(2-fluoroethoxy)-2-methyl-4-(4-(methylamino)-5-(trifluoromethyl)pyrimidin-2-ylamino)phenyl)(morpholino) methanone]
  Ki: 2.3 nM

## CNc1nc(Nc2cc(OC)c(C(=O)N3CCCC3)cc2OCF)ncc1C(F)(F)F [Compound 14, (5-(fluoromethoxy)-2-methoxy-4-(4-(methylamino)-5-(trifluoromethyl)pyrimidin-2-ylamino)phenyl)(pyrrolidin-1-yl)methanone]
  Ki: 3.2 nM

## CNc1nc(Nc2ccc(S(C)(=O)=O)cc2OCCF)ncc1C(F)(F)F [Compound 15, N2-(2-(2-fluoroethoxy)-4-(methylsulfonyl)phenyl)-N4-methyl-5-(trifluoromethyl)pyrimidine-2,4-diamine]
  Ki: 3.3 nM

## CCNc1nc(Nc2cc(OCF)c(C(=O)N3CCCC3)cc2F)ncc1C(F)(F)F [Compound 16, (4-(4-(ethylamino)-5-(trifluoromethyl)pyrimidin-2-ylamino)-5-fluoro-2-(fluoromethoxy)phenyl)(pyrrolidin-1-yl)methanone]
  Ki: 3.4 nM

## CNc1nc(Nc2cc(F)c(C(=O)N3CCOCC3)cc2OCCF)ncc1C(F)(F)F [Compound 17, (2-fluoro-5-(2-fluoroethoxy)-4-(4-(methylamino)-5-(trifluoromethyl)pyrimidin-2-ylamino)phenyl)(morpholino) methanone]
  Ki: 3.5 nM

## CNc1nc(Nc2cc(F)c(CN3CCOCC3)cc2OCCF)ncc1C(F)(F)F [Compound 18, N2-(5-fluoro-2-(2-fluoroethoxy)-4-(morpholinomethyl)phenyl)-N4-methyl-5-(trifluoromethyl)pyrimidine-2,4-diamine]
  Ki: 3.7 nM

## CNc1nc(Nc2cc(OC)c(C(=O)N(C)C)cc2OCF)ncc1C(F)(F)F [Compound 19, 5-(fluoromethoxy)-2-methoxy-N,N-dimethyl-4-(4-(methylamino)-5-(trifluoromethyl)pyrimidin-2-ylamino)benzamide]
  Ki: 4 nM

## CNc1nc(Nc2cc(OC)c(C(=O)N3CCCC3)cc2OCCF)ncc1C(F)(F)F [Compound 20, (5-(2-fluoroethoxy)-2-methoxy-4-(4-(methylamino)-5-(trifluoromethyl)pyrimidin-2-ylamino)phenyl)(pyrrolidin-1-yl)methanone]
  Ki: 4.7 nM

## CNc1nc(Nc2ccc(CN3CCOCC3)cc2OCCF)ncc1C(F)(F)F [Compound 21, N2-(2-(2-fluoroethoxy)-4-(morpholinomethyl)phenyl)-N4-methyl-5-(trifluoromethyl)pyrimidine-2,4-diamine]
  Ki: 6.6 nM

## CNc1nc(Nc2cc(F)c(C(=O)N3CCCC3)cc2OCF)ncc1C(F)(F)F [Compound 22, (2-fluoro-5-(fluoromethoxy)-4-(4-(methylamino)-5-(trifluoromethyl)pyrimidin-2-ylamino)phenyl)(pyrrolidin-1-yl)methanone]
  Ki: 6.5 nM

## COc1nc(Nc2cc(C)c(C(=O)N3CCCC3)cc2OCF)ncc1Cl [Compound 24, (4-(5-chloro-4-methoxypyrimidin-2-ylamino)-5-(fluoromethoxy)-2-methylphenyl)(pyrrolidin-1-yl)methanone]
  Ki: 11 nM

## COc1nc(Nc2ccc(CN3CCOCC3)cc2OCCF)ncc1Cl [Compound 25, 5-chloro-N-(2-(2-fluoroethoxy)-4-(morpholinomethyl)phenyl)-4-methoxypyrimidin-2-amine]
  Ki: 12 nM

## COc1nc(Nc2ccc(S(C)(=O)=O)cc2OCCF)ncc1Cl [Compound 26, 5-chloro-N-(2-(2-fluoroethoxy)-4-(methylsulfonyl)phenyl)-4-methoxypyrimidin-2-amine]
  Ki: 12 nM

## CNc1nc(Nc2ccc(S(C)(=O)=O)cc2OCCF)ncc1Cl [Compound 27, 5-chloro-N2-(2-(2-fluoroethoxy)-4-(methylsulfonyl)phenyl)-N4-methylpyrimidine-2,4-diamine]
  Ki: 12 nM

## COc1nc(Nc2ccc(C(=O)N3CCOCC3)cc2OCCF)ncc1Cl [Compound 28, (4-(5-chloro-4-methoxypyrimidin-2-ylamino)-3-(2-fluoroethoxy)phenyl)(morpholino) methanone]
  Ki: 15 nM

## CNc1nc(Nc2cnc(N3CCOCC3)cc2OCCF)ncc1C(F)(F)F [Compound 29, N2-(4-(2-fluoroethoxy)-6-morpholinopyridin-3-yl)-N4-methyl-5-(trifluoromethyl)pyrimidine-2,4-diamine]
  Ki: 21 nM

## CNc1nc(Nc2ccc(C(=O)N3CCOCC3)cc2OCCF)ncc1C(F)(F)F [Compound 30, (3-(2-fluoroethoxy)-4-(4-(methylamino)-5-(trifluoromethyl)pyrimidin-2-ylamino)phenyl)(morpholino) methanone]
  Ki: 2.3 nM

## CNc1nc(Nc2cnn(C3CCN(CCF)CC3)c2C)ncc1C(F)(F)F [Compound 31, N2-(1-(1-(2-fluoroethyl)piperidin-4-yl)-5-methyl-1H-pyrazol-4-yl)-N4-methyl-5-(trifluoromethyl)pyrimidine-2,4-diamine]
  Ki: 4.2 nM

## COc1nc(Nc2cnn(C3CCN(CCF)CC3)c2C)ncc1Cl [Compound 32, 5-chloro-N-(1-(1-(2-fluoroethyl)piperidin-4-yl)-5-methyl-1H-pyrazol-4-yl)-4-methoxypyrimidin-2-amine]
  Ki: 21 nM

## CNc1nc(Nc2cn(C3CCN(CCF)CC3)nc2C)ncc1C(F)(F)F [Compound 33, N2-(1-(1-(2-fluoroethyl)piperidin-4-yl)-3-methyl-1H-pyrazol-4-yl)-N4-methyl-5-(trifluoromethyl)pyrimidine-2,4-diamine]
  Ki: 25 nM

## CNc1nc(Nc2cnn(C)c2CF)ncc1C(F)(F)F [Compound 34, N2-(5-(fluoromethyl)-1-methyl-1H-pyrazol-4-yl)-N4-methyl-5-(trifluoromethyl)pyrimidine-2,4-diamine]
  Ki: 24 nM

## CNc1nc(Nc2cn(CCF)nc2C)ncc1C(F)(F)F [Compound 35, N2-(1-(2-fluoroethyl)-3-methyl-1H-pyrazol-4-yl)-N4-methyl-5-(trifluoromethyl)pyrimidine-2,4-diamine]
  Ki: 1.1 nM

## CNc1nc(Nc2cnn(CCF)c2C)ncc1C(F)(F)F [Compound 36, N2-(1-(2-fluoroethyl)-5-methyl-1H-pyrazol-4-yl)-N4-methyl-5-(trifluoromethyl)pyrimidine-2,4-diamine]
  Ki: 1.8 nM

## CNc1nc(Nc2ccc(C(=O)N3CCOCC3)cc2OC)ncc1C(F)(F)F [Compound 38, (3-methoxy-4-(4-(methylamino)-5-(trifluoromethyl)pyrimidin-2-ylamino)phenyl)(morpholino) methanone]
  Ki: 2.7 nM

## COc1nc(Nc2ccc(C(=O)N3CCOCC3)cc2OCCF)ncc1Cl [Compound 40, (4-((5-chloro-4-methoxypyrimidin-2-yl)amino)-3-(2-fluoroethoxy)phenyl)(morpholino) methanone]
  Ki: 14 nM

## [2H]C([2H])(F)C([2H])([2H])n1ncc(Nc2ncc(C(F)(F)F)c(NC)n2)c1C [Compound 48, N2-(1-(2-fluoro-1,1,2,2-tetradeutero-ethyl)-5-methyl-1H-pyrazol-4-yl)-N4-methyl-5-(trifluoromethyl)pyrimidine-2,4-diamine]
  Ki: 2 nM

Source: patent US9139566B2, “Fluorine-18 and carbon-11 labeled radioligands for positron emission tomography (PET) imaging for LRRK2” (Genentech, Inc., priority 2011, dated 2015)
